According to PMC9037210, “Novel 3-(6-methylpyridin-2-yl)coumarin-based chalcones as selective inhibitors of cancer-related carbonic anhydrases IX and XII endowed with anti-proliferative activity” (Journal of Enzyme Inhibition and Medicinal Chemistry, 2022):

What was measured:
MOLT-4 = assay: NCI single (10 µM) dose SRB screening, MOLT-4; assay type: cell-based, human; settings: 10 µM single dose, MOLT-4, Leukaemia
Experimental: (§1) Following NCI protocol, sixteen MPCs were screened for their potential in vitro anticancer effects against human 59 cancer cell panels including prostate, leukaemia melanoma, colon, breast, CNS, renal, NSCLC, and ovarian cancers by National Cancer Institute (USA)[30].
(§2) The antiproliferative activities of MPC 3 and MPCs 5a–o were first evaluated in a 10 µM dose assay, with SRB assay used to determine cell survival and proliferation. […] The results of the cell growth inhibitory activities for MPCs 5g and 5l towards the different treated tumour cell lines were presented as GI% and presented in Table 3.
(§3) The anticancer test was conducted using the methods of the Drug Evaluation Branch, National Cancer Institute, Bethesda, MD, using 59 human tumour cell lines derived from nine human tissues. The GI50, TGI, and LC50 dose-response parameters were calculated for each medication.

hCA I = target: T1, hCA I (Homo sapiens, UniProt P00915); assay: stopped-flow CO2 hydrase assay, hCA I; assay type: biochemical; settings: stopped-flow, incubation time of 6 h, mean of three assays; read-out: KI CA I
T1 construct: made in house
T1 sequence (P00915 whole entry): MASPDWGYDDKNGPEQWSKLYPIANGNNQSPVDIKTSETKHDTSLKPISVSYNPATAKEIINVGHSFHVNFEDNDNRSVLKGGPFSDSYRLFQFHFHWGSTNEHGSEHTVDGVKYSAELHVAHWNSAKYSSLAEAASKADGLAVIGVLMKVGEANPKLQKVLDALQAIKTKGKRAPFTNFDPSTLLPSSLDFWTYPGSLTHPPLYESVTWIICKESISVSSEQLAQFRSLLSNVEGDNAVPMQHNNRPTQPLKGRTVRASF
Experimental: (§4) The newly synthesised MPCs (3 and 5a–o) were assessed for their CA inhibition activity employing the stopped-flow CO2 hydrase assay[29] for constitutional hCA (I/II) isoforms and cancer-linked hCA (IX/XII) isoforms.
(§5) The CA inhibition activity for the herein reported MPC derivatives was evaluated against the hCA isoforms I, II, IX, and XII using stopped-flow CO2 hydrase test[7]^,[33–36] (see the Supplementary Material).
(§6) Carbonic anhydrase inhibition assay
(§7) The carbonic anhydrase catalyzed CO2 hydration actions for all coumarin-based […]
(§8) Photophysics stopped-flow. The enzymes are recombinant proteins prepared in our lab. Phenol red (at a concentration of 0.2 mM) has been used as indicator, working at […]
(§9) mM Na2SO4 (for maintaining constant the ionic strength), following the initial rates of the CA-catalyzed CO2 hydration reaction for a period of 10-100 s. The CO2 concentrations ranged from 1.7 to 17 mM for the determination of the kinetic parameters and inhibition constants. For each inhibitor at least six traces of the initial 5-10% of the reaction have been used for determining the initial velocity. The uncatalyzed rates were determined in the same manner and subtracted from the total observed rates. Stock solutions of inhibitor (0.1 mM) were prepared in distilled-deionized water and dilutions up to 0.01 nM were done thereafter with the assay buffer. Inhibitor and enzyme solutions were preincubated together for 6 hrs. at room temperature prior to assay, in order to allow for the formation of the E-I complex. The inhibition constants were obtained by non-linear least-squares methods using PRISM 3 and the Cheng-Prusoff equation, and represent the mean from at least three different

NCI-H522 = assay: NCI single (10 µM) dose SRB screening, NCI-H522; assay type: cell-based, human; settings: 10 µM single dose, NCI-H522, NSC lung cancer
Experimental: as §1, §2, §3

NCI-H23 = assay: NCI single (10 µM) dose SRB screening, NCI-H23; assay type: cell-based, human; settings: 10 µM single dose, NCI-H23, NSC lung cancer
Experimental: as §1, §2, §3

T-47D = assay: NCI single (10 µM) dose SRB screening, T-47D; assay type: cell-based, human; settings: 10 µM single dose, Breast cancer
Experimental: as §1, §2, §3

SK-OV-3 = assay: NCI single (10 µM) dose SRB screening, SK-OV-3; assay type: cell-based, human; settings: 10 µM single dose, SK-OV-3, Ovarian cancer
Experimental: as §1, §2, §3

hCA XII = target: T2, hCA XII (Homo sapiens, UniProt O43570); assay: stopped-flow CO2 hydrase assay, hCA XII; assay type: biochemical; settings: for Selectivity index (SI) (KI off-target CA/KI target CA) Towards hCA XII: ratio of KI for hCA I and II relative to hCA XII; for Ki: stopped-flow, incubation time of 6 h, mean of three assays, read-out: KI CA XII
T2 construct: made in house
T2 sequence (O43570 25-354): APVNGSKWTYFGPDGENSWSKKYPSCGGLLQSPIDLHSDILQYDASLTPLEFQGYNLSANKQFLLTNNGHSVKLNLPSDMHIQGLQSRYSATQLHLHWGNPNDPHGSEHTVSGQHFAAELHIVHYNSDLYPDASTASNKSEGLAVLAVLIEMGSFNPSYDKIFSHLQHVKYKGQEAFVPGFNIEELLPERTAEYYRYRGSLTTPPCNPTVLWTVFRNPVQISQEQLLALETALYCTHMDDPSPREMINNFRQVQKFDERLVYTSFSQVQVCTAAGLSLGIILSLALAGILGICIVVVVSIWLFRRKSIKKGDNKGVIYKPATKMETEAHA
Experimental: as §4, §5, §6, §7, §8, §9

OVCAR-5 = assay: NCI single (10 µM) dose SRB screening, OVCAR-5; assay type: cell-based, human; settings: 10 µM single dose, OVCAR-5, Ovarian cancer
Experimental: as §1, §2, §3

LOX IMVI = assay: NCI single (10 µM) dose SRB screening, LOX IMVI; assay type: cell-based, human; settings: 10 µM single dose, Melanoma
Experimental: as §1, §2, §3

MDA-MB-231 = assay: NCI single (10 µM) dose SRB screening, MDA-MB-231; assay type: cell-based, human; settings: 10 µM single dose, MDA-MB-231, Breast cancer
Experimental: as §1, §2, §3

SK-MEL-5 = assay: NCI single (10 µM) dose SRB screening, SK-MEL-5; assay type: cell-based, human; settings: 10 µM single dose, SK-MEL-5, Melanoma
Experimental: as §1, §2, §3

M14 = assay: NCI single (10 µM) dose SRB screening, M14; assay type: cell-based, human; settings: 10 µM single dose, M14, Melanoma
Experimental: as §1, §2, §3

NCI-H460 = assay: NCI single (10 µM) dose SRB screening, NCI-H460; assay type: cell-based, human; settings: 10 µM single dose, NCI-H460, NSC lung cancer
Experimental: as §1, §2, §3

OVCAR-4 = assay: NCI single (10 µM) dose SRB screening, OVCAR-4; assay type: cell-based, human; settings: 10 µM single dose, OVCAR-4, Ovarian cancer
Experimental: as §1, §2, §3

RXF 393 = assay: NCI single (10 µM) dose SRB screening, RXF 393; assay type: cell-based, human; settings: 10 µM single dose, RXF 393, Renal cancer
Experimental: as §1, §2, §3

UO-31 = assay: NCI single (10 µM) dose SRB screening, UO-31; assay type: cell-based, human; settings: 10 µM single dose, UO-31, Renal cancer
Experimental: as §1, §2, §3

COLO 205 = assay: NCI single (10 µM) dose SRB screening, COLO 205; assay type: cell-based, human; settings: 10 µM single dose, COLO 205, Colon cancer
Experimental: as §1, §2, §3

NCI-H226 = assay: NCI single (10 µM) dose SRB screening, NCI-H226; assay type: cell-based, human; settings: 10 µM single dose, NCI-H226, NSC lung cancer
Experimental: as §1, §2, §3

A498 = assay: NCI single (10 µM) dose SRB screening, A498; assay type: cell-based, human; settings: 10 µM single dose, A498, Renal cancer
Experimental: as §1, §2, §3

OVCAR-8 = assay: NCI single (10 µM) dose SRB screening, OVCAR-8; assay type: cell-based, human; settings: 10 µM single dose, OVCAR-8, Ovarian cancer
Experimental: as §1, §2, §3

BT-549 = assay: NCI single (10 µM) dose SRB screening, BT-549; assay type: cell-based, human; settings: 10 µM single dose, BT-549, Breast cancer
Experimental: as §1, §2, §3

MALME-3M = assay: NCI single (10 µM) dose SRB screening, MALME-3M; assay type: cell-based, human; settings: 10 µM single dose, Melanoma
Experimental: as §1, §2, §3

CCRF-CEM = assay: NCI single (10 µM) dose SRB screening, CCRF-CEM; assay type: cell-based, human; settings: 10 µM single dose, Leukaemia
Experimental: as §1, §2, §3

KM 12 = assay: NCI single (10 µM) dose SRB screening, KM 12; assay type: cell-based, human; settings: 10 µM single dose, KM 12, Colon cancer
Experimental: as §1, §2, §3

EKVX = assay: NCI single (10 µM) dose SRB screening, EKVX; assay type: cell-based, human; settings: 10 µM single dose, NSC lung cancer
Experimental: as §1, §2, §3

HCC-2998 = assay: NCI single (10 µM) dose SRB screening, HCC-2998; assay type: cell-based, human; settings: 10 µM single dose, HCC-2998, Colon cancer
Experimental: as §1, §2, §3

HCT-116 = assay: NCI single (10 µM) dose SRB screening, HCT-116; assay type: cell-based, human; settings: 10 µM single dose, HCT-116, Colon cancer
Experimental: as §1, §2, §3

NCI-H322M = assay: NCI single (10 µM) dose SRB screening, NCI-H322M; assay type: cell-based, human; settings: 10 µM single dose, NSC lung cancer
Experimental: as §1, §2, §3

Cc1nc(-c2cc3ccccc3oc2=O)ccc1C(=O)/C=C/c1ccc(N2CCOCC2)cc1 [Compound 5g, 3-(6-Methyl-5-[(2E)-3-[4-(morpholin-4-yl)phenyl]prop-2-enoyl]pyridin-2-yl)-2H-chromen-2-one]
GI % (MOLT-4): 33% | Ki (hCA I): > 100000 nM | GI % (NCI-H522): 38% | GI % (NCI-H23): – (Only GI % more than 20% are displayed.) | GI % (T-47D): – (Only GI % more than 20% are displayed.) | GI % (SK-OV-3): – (Only GI % more than 20% are displayed.) | Selectivity index (SI) (KI off-target CA/KI target CA) Towards hCA XII (hCA XII): >55.56 | Ki (hCA XII): 1800 nM | GI % (OVCAR-5): – (Only GI % more than 20% are displayed.) | GI % (LOX IMVI): 68% | GI % (MDA-MB-231): 45% | GI % (SK-MEL-5): 28% | GI % (M14): 54% | GI % (NCI-H460): – (Only GI % more than 20% are displayed.) | GI % (OVCAR-4): 27% | GI % (RXF 393): – (Only GI % more than 20% are displayed.) | GI % (UO-31): – (Only GI % more than 20% are displayed.) | GI % (COLO 205): – (Only GI % more than 20% are displayed.) | GI % (NCI-H226): – (Only GI % more than 20% are displayed.) | GI % (A498): 24% | GI % (OVCAR-8): – (Only GI % more than 20% are displayed.) | GI % (BT-549): 23% | GI % (MALME-3M): 42% | GI % (CCRF-CEM): 27% | GI % (KM 12): 31% | GI % (EKVX): – (Only GI % more than 20% are displayed.) | GI % (HCC-2998): – (Only GI % more than 20% are displayed.) | GI % (HCT-116): – (Only GI % more than 20% are displayed.) | GI % (NCI-H322M): – (Only GI % more than 20% are displayed.)

Cc1nc(-c2cc3ccccc3oc2=O)ccc1C(=O)/C=C/c1ccccn1 [Compound 5l, 3-(6-Methyl-5-[(2E)-3-(pyridin-2-yl)prop-2-enoyl]pyridin-2-yl)-2H-chromen-2-one]
GI % (MOLT-4): 72% | Ki (hCA I): > 100000 nM | GI % (NCI-H522): 41% | GI % (NCI-H23): 44% | GI % (T-47D): 47% | GI % (SK-OV-3): – (Only GI % more than 20% are displayed.) | Selectivity index (SI) (KI off-target CA/KI target CA) Towards hCA XII (hCA XII): >108.70 | Ki (hCA XII): 920 nM | GI % (OVCAR-5): 39% | GI % (LOX IMVI): 184% | GI % (MDA-MB-231): 87% | GI % (SK-MEL-5): – (Only GI % more than 20% are displayed.) | GI % (M14): – (Only GI % more than 20% are displayed.) | GI % (NCI-H460): 58% | GI % (OVCAR-4): – (Only GI % more than 20% are displayed.) | GI % (RXF 393): 67% | GI % (UO-31): 41% | GI % (COLO 205): – (Only GI % more than 20% are displayed.) | GI % (NCI-H226): – (Only GI % more than 20% are displayed.) | GI % (A498): – (Only GI % more than 20% are displayed.) | GI % (OVCAR-8): 30% | GI % (BT-549): – (Only GI % more than 20% are displayed.) | GI % (MALME-3M): – (Only GI % more than 20% are displayed.) | GI % (CCRF-CEM): 93% | GI % (KM 12): 93% | GI % (EKVX): – (Only GI % more than 20% are displayed.) | GI % (HCC-2998): 33% | GI % (HCT-116): 121% | GI % (NCI-H322M): – (Only GI % more than 20% are displayed.)
